In data set [1] the target is T1, Autotaxin (Homo sapiens, UniProt Q13822). Briefly: Inhibition of human ATX phosphodiesterase expressed in Sf9 cells assessed as hydrolysis of FS-3 at 10 uM measured after 5 to 25 mins by fluorescence assay.
Data set [2] deals with T1, Autotaxin. Briefly: Inhibition of human ATX phosphodiesterase expressed in Sf9 cells assessed as hydrolysis of FS-3 measured after 5 to 25 mins by fluorescence assay.
Data set [3] deals with T1, Autotaxin. Briefly: Irreversible inhibition of human ATX phosphodiesterase activity expressed in Sf9 cells assessed as hydrolysis of FS-3 preincubated for 2 mins before substrate addition measured 1000 fold dilution by fluorescence assay.
For data set [4], the system named is MeWo. Briefly: Antitumor activity against human MeWo cells xenografted in athymic nude mouse assessed as reduction of ATX level in serum at 30 mg/kg, ip administered every other day of 21 days post tumor cell injection. In kind it is functional, organism-based. (In general: In xenograft studies the graft and the host belong to different species.)
Data set [5] deals with MeWo. Briefly: Antitumor activity against human MeWo cells xenografted in athymic nude mouse at 30 mg/kg, ip administered every other day of 21 days post tumor cell injection. It counts as functional, organism-based.
Data set [6] relates to OVCAR-3. Briefly: Inhibition of cell migration in human OVCAR3 cells assessed as gap closure distance at 5 uM after 24 hrs by wound healing assay. In kind it is functional. The settings on record: OVCAR-3, 24 h.
In data set [7] the test system is SK-OV-3. Briefly: Cytotoxicity against human SKOV3 cells after 48 hrs by CellTiter-Blue assay. The settings on record: SK-OV-3, 48 h. In kind it is functional, cell-based. For orientation: Resazurin is reduced to fluorescent resorufin, in cell work by metabolically active cells.
Data set [8] concerns Mus musculus. Briefly: Toxicity in human MeWo cells xenografted athymic nude mouse assessed as mortality at 50 mg/kg, ip administered every other day of 21 days post tumor cell injection measured on day 45. In kind it is organism-based. To be noted: in vivo, 504 h.
The subject of data set [9] is MeWo. Briefly: Inhibition of cell migration in human MeWo cells assessed as gap closure distance at 5 uM after 24 hrs by wound healing assay. In kind it is functional, cell-based.
The test system of data set [10] is MeWo. Briefly: Cytotoxicity against human MeWo cells after 48 hrs by CellTiter-Blue assay. It counts as functional, cell-based.
Data set [11] relates to MeWo. Briefly: Cytotoxicity against human MeWo cells assessed as reduction of cell viability after 48 hrs by CellTiter-Blue assay. In kind it is functional.
The test system of data set [12] is SK-OV-3. Briefly: Inhibition of cell migration in human SKOV3 cells assessed as gap closure distance at 5 uM after 24 hrs by wound healing assay in presence of 1 uM of LPA. In kind it is functional, cell-based.
Data set [13] concerns MeWo. Briefly: Antitumor activity against human MeWo cells xenografted in athymic nude mouse assessed as reduction of KC/CXCL-1 level in serum at 50 mg/kg, ip administered every other day of 21 days post tumor cell injection. It counts as functional, organism-based.
Data set [14] concerns the target T1, Autotaxin. Briefly: Inhibition of human ATX phosphodiesterase expressed in Sf9 cells assessed as hydrolysis of FS-3 preincubated for 2 mins before substrate addition measured after 5 to 25 mins by fluorescence assay.
The test system of data set [15] is MDA-MB-231. Briefly: Cytotoxicity against human MDA-MB-231 cells after 48 hrs by CellTiter-Blue assay. It counts as functional, cell-based. The settings on record: MDA-MB-231, 48 h.
Data set [16] relates to MeWo. Briefly: Antitumor activity against human MeWo cells xenografted in athymic nude mouse assessed as reduction of ATX level in serum at 50 mg/kg, ip administered every other day of 21 days post tumor cell injection. It counts as functional, organism-based.
Data set [17] concerns SK-OV-3. Briefly: Inhibition of cell migration in human SKOV3 cells assessed as gap closure distance at 5 uM after 24 hrs by wound healing assay. It counts as functional, cell-based.
The subject of data set [18] is MeWo. Briefly: Antitumor activity against human MeWo cells xenografted in athymic nude mouse assessed as necrosis in tumor at 50 mg/kg, ip administered every other day of 21 days post tumor cell injection up to 48 days followed by administered 40 mg/kg, ip using hematoxylin and eosin staining. In kind it is functional, organism-based.
For data set [19], the system named is MeWo. Briefly: Inhibition of cell migration in human MeWo cells assessed as gap closure distance at 5 uM after 24 hrs by wound healing assay in presence of 1 uM of LPA. It counts as functional, cell-based.
The subject of a further data set is HT-29. Briefly: Cytotoxicity against human HT-29 cells after 48 hrs by CellTiter-Blue assay. It counts as functional, cell-based. The settings on record: HT-29, 48 h.
The test system of data set [20] is Mus musculus. Briefly: Toxicity in human MeWo cells xenografted athymic nude mouse assessed as severe dehydration at 50 mg/kg, ip administered every other day of 21 days post tumor cell injection measured on day 45. It counts as organism-based. To be noted: in vivo, 504 h.
For data set [21], the system named is Mus musculus. Briefly: Toxicity in human MeWo cells xenografted athymic nude mouse assessed as mortality at 50 mg/kg, ip administered every other day of 21 days post tumor cell injection up to 48 days followed by administered 40 mg/kg, ip. In kind it is organism-based. The settings on record: in vivo.
A further data set concerns PC-3. Briefly: Cytotoxicity against human PC3 cells after 48 hrs by CellTiter-Blue assay. It counts as functional, cell-based. To be noted: PC-3, 48 h.
In data set [22] the test system is OVCAR-3. Briefly: Inhibition of cell migration in human OVCAR3 cells assessed as gap closure distance at 5 uM after 24 hrs by wound healing assay in presence of 1 uM of LPA. In kind it is functional, cell-based.
Data set [23] deals with MDA-MB-231. Briefly: Inhibition of cell migration in human MDA-MB-231 cells assessed as gap closure distance at 5 uM after 24 hrs by wound healing assay in presence of 1 uM of LPA. In kind it is functional, cell-based.
In data set [24] the test system is MDA-MB-231. Briefly: Inhibition of cell migration in human MDA-MB-231 cells assessed as gap closure distance at 5 uM after 24 hrs by wound healing assay. In kind it is functional. To be noted: MDA-MB-231, 24 h.
Data set [25] can be described thus: Cytotoxicity against human SB2 cells after 48 hrs by CellTiter-Blue assay. To be noted: SB2, 48 h. It counts as functional, cell-based.
Data set [26] deals with MeWo. Briefly: Antitumor activity against human MeWo cells xenografted in athymic nude mouse assessed as necrotic endothelial cells at 50 mg/kg, ip administered every other day of 21 days post tumor cell injection up to 48 days followed by administered 40 mg/kg, ip using hematoxylin and eosin staining. In kind it is functional, organism-based.
Data set [27] relates to OVCAR-3. Briefly: Cytotoxicity against human OVCAR3 cells after 48 hrs by CellTiter-Blue assay. In kind it is functional, cell-based. To be noted: OVCAR-3, 48 h.

The source made the active and inactive calls. The calls are words filed in the database; no cut-off is given here.

This note sets out measurements from ChEMBL document CHEMBL3603761 (Bioorg Med Chem, 2015).

What is called inhibition is the percentage by which the read-out fell short of the control. On to `C=C(CCCCCC)S(=O)(=O)CCC[N+](C)(C)C`, for which, on Autotaxin [1], the inhibition result was “inactive”.

One may read the Ki as the dissociation constant of the complex between target and ligand, obtained from inhibition or displacement. Turning to `C=C(CCCCCCCCCCCC)S(=O)(=O)CCC[N+](C)(C)C`, at Autotaxin [2], the Ki was found to be 1790 nM.

In the case of `C=C(CCCCCCCC/C=C\CCCCCCCC)S(=O)(=O)CCC[N+](C)(C)C`, at Autotaxin [2], the Ki worked out at 2430 nM.

With `C=C(CCCCCCCCCCCCCCCC)S(=O)(=O)c1ccccc1`, the inhibition entry at Autotaxin [1] and on Autotaxin [3] was “inactive” throughout.

Take `O=C(CCN1CCN(C(=O)OCc2cc(Cl)cc(Cl)c2)CC1)c1ccc2[nH]c(=O)oc2c1`: the outcome in the data set with MeWo [4] and in the data set with MeWo [5] was inactive.

In general, IC50 refers to the midpoint of a concentration-inhibition curve. As for `C=C(CCCCCCCCCCCCCCCC)S(=O)(=O)CCC[N+](C)(C)C.[Cl-]`, the inhibition at 5 µM with OVCAR-3 [6] and in the data set with MDA-MB-231 [24] was 75% in each case. In addition, the IC50 in the data set with SK-OV-3 [7] was found to be 6740 nM; with MeWo [10] it was 4080 nM; in the data set with MDA-MB-231 [15] it was 390 nM; in the data set with HT-29 it was 2110 nM; in the data set on PC-3, 1930 nM; in data set [25] it was 4890 nM. Further, in the data set with OVCAR-3 [27], the IC50 turned out to be 4440 nM. Moreover, the Activity result in the data set on Mus musculus [8] is “Toxic”; in the data set on MeWo [11], less than 25%; in the data set with Mus musculus [20], “Toxic”; with Mus musculus [21], “Non-toxic”. Moreover, the inhibition result in the data set with MeWo [9], in the data set on SK-OV-3 [12], on Autotaxin [3], in the data set with SK-OV-3 [17], in the data set with MeWo [19] and in the data set with OVCAR-3 [22] was “Active” in each case. For the same compound, the inhibition result in the data set on MDA-MB-231 [23] was “Active”. The outcome in the data set on MeWo [13], in the data set with MeWo [16], in the data set with MeWo [18] and with MeWo [26] was Active. In addition, the inhibition entry on Autotaxin [14] was “inactive”. The Ki at Autotaxin [2] was found to be 3500 nM.

As for `O=C1S/C(=C\c2ccc(OCc3cccc(B(O)O)c3)cc2)C(=O)N1Cc1ccc(F)cc1`, the result in the data set on MeWo [4] and with MeWo [5] was inactive. The Activity with MeWo [11] is less than 25%.
